We go through 7 compounds from patent US20240358702A1, “CYCLIC UREA KRAS INHIBITORS” (INCYTE CORPORATION, priority 2023, published 2024).

For one test, the target named is KRAS G12D (Homo sapiens, UniProt P01116, G12D). Description: GDP-GTP exchange assay (bodipy-GDP/GppNHp, SOS1), KRAS G12D. As to conditions: KRAS_G12D exchange assay IC50; 4 h pre-incubation; value for the most potent isomer quoted. It is filed as biochemical. The procedure:
(§1) The inhibitor potency of the exemplified compounds was determined in a fluorescence based guanine nucleotide exchange assay, which measures the exchange of bodipy-GDP (fluorescently labeled GDP) for GppNHp (Non-hydrolyzable GTP analog) to generate the active state of KRAS in the presence of SOS1 (guanine nucleotide exchange factor). Inhibitors were serially diluted in DMSO and a volume of 0.1 μL was transferred to the wells of a black low volume 384-well plate. 5 μL/well volume of bodipy-loaded KRAS G12D diluted to […] in assay buffer (25 mM Hepes pH 7.5, 50 mM NaCl, 10 mM mgCl2 and 0.01% Brij-35) was added to the plate and pre-incubated with inhibitor for 4 h at ambient temperature. Appropriate controls (enzyme with no inhibitor or with a G12D inhibitor) were included on the plate. The exchange was initiated by the addition of a 5 μL/well volume containing 1 mM GppNHp and 300 nM SOS1 in assay buffer. The 10 μL/well reaction concentration of the bodipy-loaded KRAS G12D, GppNHp, and SOS1 were 2.5 nM, 500 uM, and 150 nM, respectively. The reaction plates were incubated at ambient temperature for 2 h, a time estimated for complete GDP-GTP exchange in the absence of inhibitor. For the KRAS G12V mutant, similar guanine nucleotide exchange assays were used with 2.5 nM as final concentration for the bodipy loaded KRAS proteins and 3 h incubation after adding GppNHp-SOS1 mixture. A cyclic peptide described to selectively bind G12D mutant (Sakamoto et al., BBRC 484.3 (2017), 605-611) or internal compounds with confirmed binding were used as positive controls in the assay plates. Fluorescence intensities were measured on a PheraStar plate reader instrument (BMG Labtech) with excitation at 485 nm and emission at 520 nm.
(§2) Either GraphPad prism or Genedata Screener SmartFit was used to analyze the data. The IC50 values were derived by fitting the data to a four parameter logistic equation producing a sigmoidal dose-response curve with a variable Hill coefficient.
(§3) The symbol “t” indicates IC50≤100 nM, “††” indicates IC50>100 nM but ≤1 μM; and “†††” indicates IC50 is >1 μM but ≤5 μM, “††††” indicates IC50 is >5 μM but ≤10 μM. “NA” indicates IC50 not available.

In another test the target is KRAS G12V (Homo sapiens, UniProt P01116, G12V). Description: GDP-GTP exchange assay (bodipy-GDP/GppNHp, SOS1), KRAS G12V. It is filed as biochemical. As to conditions: KRAS_G12V exchange assay IC50, value for the most potent isomer quoted; for IC50: read-out: G12V_exchange. The procedure:
as §1, §2, §3

KRAS G12V, sequence (P01116 1-188 isoform P01116-2 G12V): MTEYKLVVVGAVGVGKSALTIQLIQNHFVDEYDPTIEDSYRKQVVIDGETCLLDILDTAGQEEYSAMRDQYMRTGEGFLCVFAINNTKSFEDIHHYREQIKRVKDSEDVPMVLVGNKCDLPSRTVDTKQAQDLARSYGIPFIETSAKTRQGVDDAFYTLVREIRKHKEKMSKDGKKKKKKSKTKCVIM
KRAS G12D, sequence (P01116 1-188 isoform P01116-2 G12D): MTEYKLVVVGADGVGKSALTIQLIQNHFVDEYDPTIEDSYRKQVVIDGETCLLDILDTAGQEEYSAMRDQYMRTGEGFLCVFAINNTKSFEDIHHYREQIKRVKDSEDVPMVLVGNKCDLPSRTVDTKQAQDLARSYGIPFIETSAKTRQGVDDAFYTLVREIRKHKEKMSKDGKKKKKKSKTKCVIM

With `Cc1nc2c(F)c(-c3cccc(Cl)c3Cl)c(CCC#N)cc2c2c1cc([C@@H](C)N1CCCN(c3ccnc(C(F)F)c3)C1=O)n2[C@H]1[C@H]2CN[C@@H]1C2` (single isomer, unassigned) [Example 12], at KRAS G12D, the G12D_exchange result is reported as “†”. On KRAS G12V, the IC50 is 100 to 1000 nM.

For the compound `Cc1nc2c(F)c(-c3cccc(Cl)c3Cl)c(CCC#N)cc2c2c1cc([C@@H](C)N1CCCN(c3ccncc3)C1=O)n2[C@H]1[C@H]2CN[C@@H]1C2` [Example 17, 3-(1-((1R,4R,5S)-2-azabicyclo[2.1.1]hexan-5-yl)-7-(2,3-dichlorophenyl)-6-fluoro-4-methyl-2-((R)-1-(2-oxo-3-(pyridin-4-yl)tetrahydropyrimidin-1(2H)-yl)ethyl)-1H-pyrrolo[3,2-c]quinolin-8-yl)propanenitrile], the G12D_exchange entry at KRAS G12D is “†”. In addition, the IC50 at KRAS G12V fell in the range of 100 to 1000 nM.

For `Cc1nc2c(F)c(-c3cccc(Cl)c3Cl)c(CCC#N)cc2c2c1cc([C@@H](C)N1CCCN(c3ccnc(C#N)c3)C1=O)n2[C@H]1[C@H]2CN[C@@H]1C2` [Example 29, 4-(3-((1R)-1-(1-((1R,4R,5S)-2-azabicyclo[2.1.1]hexan-5-yl)-8-(2-cyanoethyl)-7-(2,3-dichlorophenyl)-6-fluoro-4-methyl-1H-pyrrolo[3,2-c]quinolin-2-yl)ethyl)-2-oxotetrahydropyrimidin-1(2H)-yl)picolinonitrile], the G12D_exchange entry at KRAS G12D is reported as “†”. Also, the IC50 on KRAS G12V is 100 to 1000 nM.

Consider `Cc1nc2c(F)c(-c3cccc(Cl)c3Cl)c(CCC#N)cc2c2c1cc([C@@H](C)N1CCCN(c3ccnc(N)c3)C1=O)n2[C@H]1[C@H]2CN[C@@H]1C2` [Example 32, 3-(2-((R)-1-(3-(2-aminopyridin-4-yl)-2-oxotetrahydropyrimidin-1(2H)-yl)ethyl)-1-((1R,4R,5S)-2-azabicyclo[2.1.1]hexan-5-yl)-7-(2,3-dichlorophenyl)-6-fluoro-4-methyl-1H-pyrrolo[3,2-c]quinolin-8-yl)propanenitrile], for which, on KRAS G12D, the G12D_exchange result is “†”. Moreover, the G12V_exchange entry at KRAS G12V is “†”.

Regarding `Cc1nc2c(F)c(-c3cccc(Cl)c3Cl)c(CCC#N)cc2c2c1cc([C@@H](C)N1CCCN(c3cc[nH]c(=O)c3)C1=O)n2[C@H]1[C@H]2CN[C@@H]1C2` [Example 37, 3-(1-((1R,4R,5S)-2-azabicyclo[2.1.1]hexan-5-yl)-7-(2,3-dichlorophenyl)-6-fluoro-4-methyl-2-((R)-1-(2-oxo-3-(2-oxo-1,2-dihydropyridin-4-yl)tetrahydropyrimidin-1(2H)-yl)ethyl)-1H-pyrrolo[3,2-c]quinolin-8-yl)propanenitrile], the G12D_exchange entry at KRAS G12D is “†”. Moreover, the IC50 on KRAS G12V lay within 100 to 1000 nM.

Regarding `CC(O)c1nc2c(F)c(-c3cccc(Cl)c3Cl)c(CCC#N)cc2c2c1cc([C@@H](C)N1CCCN(c3ccncc3)C1=O)n2[C@H]1[C@H]2CN[C@@H]1C2` (stereo partly drawn) [Example 39, 3-(1-((1R,4R,5S)-2-azabicyclo[2.1.1]hexan-5-yl)-7-(2,3-dichlorophenyl)-6-fluoro-4-(1-hydroxyethyl)-2-((R)-1-(2-oxo-3-(pyridin-4-yl)tetrahydropyrimidin-1(2H)-yl)ethyl)-1H-pyrrolo[3,2-c]quinolin-8-yl)propanenitrile], at KRAS G12D, the G12D_exchange entry was “†”. Also, the G12V_exchange entry on KRAS G12V is “†”.

Regarding `Cc1nc2c(F)c(-c3cccc(Cl)c3Cl)c(CCC#N)cc2c2c1cc([C@@H](C)N1CCCN(c3ccnnc3)C1=O)n2[C@H]1[C@H]2CN[C@@H]1C2` [Example 35, 3-(1-((1R,4R,5S)-2-azabicyclo[2.1.1]hexan-5-yl)-7-(2,3-dichlorophenyl)-6-fluoro-4-methyl-2-((R)-1-(2-oxo-3-(pyridazin-4-yl)tetrahydropyrimidin-1(2H)-yl)ethyl)-1H-pyrrolo[3,2-c]quinolin-8-yl)propanenitrile], at KRAS G12D, the G12D_exchange result is “†”.
